Experiment [1] deals with rats fed either a high or normal sodium diet. The settings on record: cited from earlier work.
For another experiment, the system named is WT and TRPV1−/− hearts. The experiment is described as follows: OLDA-induced CGRP and SP release from hearts (radioimmunoassay). The arrangement: species or system mouse.
Experiment [2] has as its system Wistar rats fed a NS or HS diet for 10 days. The experiment is described as follows: MAP responses to i.v. capsaicin with or without CAPZ in urethane-anesthetized rats. It is filed as in vivo, rat. As for the experimental part:
Surgical Preparation Rats were anesthetized with ketamine and xylazine (80 and 4 mg/kg intraperitoneally, respectively) for cannulation or with urethane (1.5 g/kg intraperitoneally) for capsaicin administration. The left jugular vein, carotid and femoral artery were cannulated under anesthesia for injection of drugs or monitoring of mean arterial pressure (MAP) and heart rate (HR).
Each dose of injection was separated by a 30-minute interval. To determine the specificity of capsaicin, CAPZ (3 mg/kg) was administered 10 minutes before capsaicin injection in a separate group.

The test system of experiment [3] is Wistar rats fed a NS or HS diet for 3 weeks. The experiment is described as follows: MAP and HR responses to bolus CAPZ in conscious rats (3-week diet). It is filed as in vivo, rat. The settings on record: for peak increase in MAP: CAPZ 3 mg/kg bolus, conscious. The source says:
Animal Preparation: Experiments were approved by the institutional Animals Care and Use Committee. Male Wistar rats (6 weeks old, Charles River Laboratory, Wilmington, Mass.) were housed in a temperature-controlled room with a 12:12-hour light/dark cycle. Rats were selected randomly to receive either a normal-sodium diet (NS, 0.4% of Na^+ by weight) or a HS diet (HS, 4% of Na^+ by weight) for 3 weeks. The diets were purchased from Harlan Teklad. All rats drank water ad libitum throughout the experiment.
Surgical Preparation The rats were anesthetized with ketamine and xylazine (80 and 4 mg/kg ip, respectively) for implantation of artery and vein catheters. The left jugular vein and carotid artery were cannulated for administration of drugs or for monitoring of mean arterial pressure (MAP) and heart rate (HR) with a Statham 231D pressure transducer coupled to a Gould 2400s recorder (Gould Instruments, Dayton, Ohio, USA). For conscious animal experiments, catheters were routed subcutaneously and exteriorized between the scapulae. Rats were quietly brought to home cages 3 hours after surgery, and MAP and HR were continuously recorded. Regular room light was turned on during experiments. The rats were allowed to acclimate to their surroundings for 15-30 minutes in their cages, i.e., until which time they ceased exploring the new environment and their blood pressures stabilized. Baseline MAP and HR were recorded for 15 minutes before administration of drugs (Supowit et al., 1997; Wang and Wang, 2004).
Protocol 1: To determine whether the TRPV1 is tonically activated during HS intake, rats fed a NS or HS diet were randomly assigned to 2 groups for intravenous injection of CAPZ (3 mg/kg), a selective TRPV1 antagonist, in conscious states.

For the next experiment, the system named is male Wistar rats. The experiment is described as follows: Depressor effect of 20-HETE analog DSR given IV, with or without antagonists. The format is in vivo, rat. The settings on record: DSR 1 mg/kg with CAPZ 3 mg/kg, RP67580 4 mg/kg or CGRP 8-37 3 mg/kg.
The subject of another experiment is hearts of WT mice. The experiment is described as follows: Langendorff perfused heart, ischemia and reperfusion (I/R) with OLDA, wild type. More on the design: species or system mouse. The settings on record: antagonist 1×10^−6 M. As for the experimental part: The following measurements were made on the two types of heart tissue: left ventricular end-diastolic pressure (LVEDP), left ventricular developed pressure (LVDP), coronary flow (CF), and left ventricular (LV) peak positive rate of pressure change/rate of time change (+dP/dt) were evaluated after I/R.

Experiment [4] relates to WT hearts. The experiment is described as follows: Preconditioning (PC) protection against I/R in Langendorff hearts with receptor antagonists, wild type. More on the design: species or system mouse. As for the experimental part:
Male TRPV1 gene knockout (TRPV1-/-) strain B6.129S[…][…]^tm1Jul and matching control wild type (WT) strain C57BL/6J mice were used (Jackson Laboratory, Bar Harbor, Me.). Mice were heparinized (500 U/kg i.p.) and anesthetized with pentobarbital sodium (50 mg/kg i.p.). […] The distal end of the catheter was connected to a […] Performance Analyzer via a pressure transducer. Coronary flow (CF) was continuously measured using an ultrasonic flow probe placed in the aortic perfusion line. Hearts were paced at 400 bpm except during ischemic PC and sustained global ischemia to avoid inducing excessive ventricular tachyarrhythmia during reperfusion, and pacing was reinitiated 2 minutes after reperfusion. Left ventricular developed pressure (LVDP, peak systolic minuses LVEDP) and LV peak positive […]) during isovolumic contraction were used as indices of LV systolic function; LVEDP and the peak negative […] used as indices of LV diastolic function. […] Non-preconditioned hearts were time-matched perfused with the same duration as that of preconditioned hearts. Group 1: Controls. As normal controls (nonischemic), WT and TRPV1-/- hearts were perfused for 130 minutes. For I/R controls, WT and TRPV1-/- hearts were first perfused with Krebs-Henseleit buffer for 55 min (time-matched perfusion of the equilibration period plus the PC period), and subsequently subjected to 30 minutes of no-flow normothermic global ischemia followed by 40-minutes of reperfusion. Group 2: PC. […] The hearts were subjected to 30 minutes of no-flow normothermic global ischemia followed by 40-minutes of reperfusion as that of I/R control groups. Group 3: PC plus capsazepine (CAPZ). […] Two additional concentrations of CAPZ, 10^-6M and 10^-8 M, were used in WT hearts. An additional drug control was added. After a 20-minute equilibration period, WT hearts were perfused with CAPZ (10^-7 M) for 10 minutes without PC, followed by perfusion with Krebs-Henseleit buffer for 25 minutes (time-matched perfusion of the PC period) and then subjected to I/R. Group 4: […] Two additional concentrations of CGRP8-37, 10^-5 M and 10^-7 M, were used in WT hearts. An additional drug control of CGRP8-37 was added as that of the CAPZ control group. Group 5: PC plus RP67580. To determine the role of endogenous SP during PC, hearts from WT and TRPV1-/-mice were perfused as that of CAPZ with RP67580 (10^-7 M), a selective neurokinin-1 (NK1) receptor antagonist. Two additional concentrations of RP67580, 10^-6 M and 10^-8 M, were used in WT hearts. An additional drug control of RP67580 was added as that of the CAPZ control group.

Experiment [5] relates to WT hearts. The experiment is described as follows: Lactate dehydrogenase (LDH) release during I/R. More on the design: species or system mouse. The method, then: Lactate dehydrogenase (LDH) release: In addition to the measurement of cardiac function, cardiac injury was assessed by measuring LDH release. Perfusion effluent was collected during the first 10 minutes to 20 minutes of I/R and stored at […] until analyzed. Total LDH levels were determined with the use of a CytoTox 96 assay (Promega). The data were expressed as absorbance units released per milliliter per minute per gram of heart wet tissues (Turnbull et al., Am J Physiol Heart Circ Physiol 290: […]-9, 2006; herein incorporated by reference).

Structures are written as SMILES.

Consider `Oc1cc2c(cc1O)CN(C(=S)NCCc1ccc(Cl)cc1)CCC2` [CAPZ, N-[2-(4-Chlorophenyl)ethyl]-1,3,4,5-tetrahydro-7,8-dihydroxy-2H-2-benzazepine-2-carbothioamide], for which the “effect on capsaicin actions on plasma CGRP and MAP” value in experiment [1] (rat, in vivo) is “blocked”. In experiment [1] (rats fed a high salt diet), the “pro-hypertensive effects of salt” value was “unmasked”. The “effect on OLDA-increased CGRP and SP release in WT hearts” value in the experiment on WT and TRPV1−/− hearts was “blocked”. Also, the “capsaicin-induced decrease in MAP after CAPZ” value in experiment [2] (CAPZ 3 mg/kg before capsaicin 10 μg/kg, HS) stood at 4±1 mmHg; in experiment [2] (CAPZ 3 mg/kg before capsaicin 10 μg/kg, NS), 4±1 mmHg; in experiment [2] (CAPZ 3 mg/kg before capsaicin 30 μg/kg, HS), 6±2 mmHg; in experiment [2] (CAPZ 3 mg/kg before capsaicin 30 μg/kg, NS), 5±1 mmHg. For the same molecule, the results for the “peak increase in MAP” value in experiment [3] (HS 3 weeks) and in experiment [3] (NS 3 weeks) were 13±3 mmHg and 4±2 mmHg, respectively. Also, the “duration of pressor action” value in experiment [3] (CAPZ 3 mg/kg, HS) lay within 6 to 7 min. The “time to peak MAP elevation after injection” value in experiment [3] (CAPZ 3 mg/kg, HS) is recorded as ≤ 2 min. Moreover, the “change in HR” value in experiment [3] (CAPZ 3 mg/kg, NS or HS) is listed as “no significant change”. The “DSR induced-depressor effect after antagonist” value with male Wistar rats is on record as 8.5±2.5 mmHg. Besides, the “effect on protective effect of OLDA in WT hearts” value in the experiment on hearts of WT mice is on record as “abolished”. The “effect on cardiac function in WT hearts without I/R” value in the experiment with WT hearts [4] is “no effect on cardiac function”. Besides, in the experiment on WT hearts [4] (CAPZ 10^−7 M, CGRP8-37 10^−6 M, RP67580 10^−7 M), the “effect on PC-induced cardiac protection (LVEDP, LVDP, CF, +dP/dt, −dP/dt) in WT hearts” value is recorded as “abolished PC induced protection”. The “effect on PC protection assessed by LDH levels after I/R in WT hearts” value in the experiment with WT hearts [5] is “abolished”.

Source of the values: US20080051454A1, “Compositions and methods for transient receptor potential vanilloid (TRPV) channel mediated treatments” (The Board of Trustees Operating Michigan State University, priority 2006, published 2008).
